≈ marks a conversion by molar mass, not a printed value. Entries after “also recorded” stand apart in the source; their conditions may differ.
Legend:
Escherichia coli 1418 = experiment: Inhibition zone, agar plate; format: cell-based; conditions: 15λ, read-out: Inhibition Zone Diameter
[1] = tested on: Bacillus subtilis 964 (6633); experiment: Inhibition zone, agar plate; format: cell-based; conditions: 15λ, read-out: Inhibition Zone Diameter
C. perfringens 2237 = experiment: microbe, parasite or virus in culture; format: cell-based; conditions: Clostridium perfringens, 2237, 48 h
Ent. cloacae P99- 2647 [2] = experiment: Agar dilution, antagonist-free medium; conditions: Enterobacter cloacae, P992647, 20 h
[3] = tested on: Peptostreptococcus anaerobius 3282; experiment: Anaerobic agar dilution, Wilkens-Chalgren agar; format: cell-based; conditions: Peptostreptococcus anaerobius, 3282, 48 h
[4] = tested on: Staphylococcus aureus 108 (6538P); experiment: Inhibition zone, agar plate; format: cell-based; conditions: 15λ, read-out: Inhibition Zone Diameter
C. perfringens 3510 = experiment: microbe, parasite or virus in culture; format: cell-based; conditions: Clostridium perfringens, 3510, 48 h
K. pneumoniae 4005 = experiment: Agar dilution, trypticase soy agar; conditions: Klebsiella pneumoniae, 4005, 20 h
[5] = tested on: Veillonella alcalescens 1952; experiment: Anaerobic agar dilution, Wilkens-Chalgren agar; format: cell-based; conditions: Veillonella parvula, 1952, 48 h
[6] = tested on: B. distasonis Pen^r, Fox^r 3445; experiment: Anaerobic agar dilution, Wilkens-Chalgren agar; format: cell-based; conditions: Parabacteroides distasonis, 48 h
[7] = tested on: Corynebacterium pseudodiph. 261 (9742); experiment: Inhibition zone, agar plate; format: cell-based; conditions: read-out: Inhibition Zone Diameter
B. asaccharolyticus 4271 = experiment: Anaerobic agar dilution, Wilkens-Chalgren agar; format: cell-based; conditions: Porphyromonas asaccharolytica, 4271, 48 h
B. ovatus Pen^r 3248 = experiment: Anaerobic agar dilution, Wilkens-Chalgren agar; format: cell-based; conditions: Bacteroides ovatus, 48 h
[8] = tested on: Pasteurella multocida (4678); experiment: Protection and survival of infected mice; conditions: intraperitoneal
[9] = tested on: Actinomyces naeslundii 4053; experiment: Anaerobic agar dilution, Wilkens-Chalgren agar; format: cell-based; conditions: Actinomyces naeslundii, 4053, 48 h
[10] = tested on: Proteus vulgaris 2112 (episome); experiment: Inhibition zone, agar plate; format: cell-based; conditions: read-out: Inhibition Zone Diameter
[11] = tested on: B. thetalotamicron Clind^r, NCCLS control strain 4420; experiment: Anaerobic agar dilution, Wilkens-Chalgren agar; format: cell-based; conditions: 48 h
[12] = tested on: B. distasonis Pen^r, Fox^r, Clind^r 4361; experiment: Anaerobic agar dilution, Wilkens-Chalgren agar; format: cell-based; conditions: Parabacteroides distasonis, 48 h
[13] = tested on: S. aureus Gm^r Meth^r 4310; experiment: Agar dilution, trypticase soy agar; conditions: Staphylococcus aureus, 20 h
[14] = tested on: Escherichia coli 60 (9637); experiment: Inhibition zone, agar plate; format: cell-based; conditions: 15λ, read-out: Inhibition Zone Diameter
Ent. cloacae P99+ 2646 = experiment: Agar dilution, trypticase soy agar; conditions: Enterobacter cloacae, 20 h
Staph. aureus 2865 = experiment: Agar dilution, antagonist-free medium
E. coli TEM 2+ 4351 = experiment: Agar dilution, trypticase soy agar; conditions: Escherichia coli, 20 h
E. coli DC2 4353 = experiment: Agar dilution, antagonist-free medium
Ent. cloacae P99- 2647 [15] = experiment: Agar dilution, trypticase soy agar; conditions: Enterobacter cloacae, P992647, 20 h
K. pneumoniae K1+ 4354 = experiment: Agar dilution, trypticase soy agar; conditions: Klebsiella pneumoniae, 20 h
[16] = tested on: Proteus vulgaris 838 (21100); experiment: Inhibition zone, agar plate; format: cell-based; conditions: 15λ, read-out: Inhibition Zone Diameter
E. coli 2891 = experiment: Agar dilution, antagonist-free medium; conditions: Escherichia coli, 2891, 20 h
Ser. marcescens 2840 = experiment: Agar dilution, antagonist-free medium; conditions: Serratia marcescens, 2840, 20 h
[17] = tested on: Bacteroides fragilis Met^r . Pen^r 4324; experiment: Anaerobic agar dilution, Wilkens-Chalgren agar; format: cell-based; conditions: 48 h
Candida albicans 992 = experiment: Inhibition zone, agar plate; format: cell-based; conditions: 15λ, read-out: Inhibition Zone Diameter
Method: (§1) A crystalline sample of L-654,040 was dissolved in distilled water. Aliquots of 15λ were deposited on the surface of each seeded nutrient agar susceptibility test plate, followed by overnight incubation Plates were then measured for activity by determining the inhibition zone diameter under the previously placed 15λ aliquot.

Bacillus sp. 633 = experiment: Inhibition zone, agar plate; format: cell-based; conditions: 15λ, read-out: Inhibition Zone Diameter
Method: as §1

Sal. typhimurium 3860 = experiment: Agar dilution, trypticase soy agar; conditions: Salmonella enterica, 20 h
[18] = tested on: Erwinia atroseptica 1159 (4446); experiment: Inhibition zone, agar plate; format: cell-based; conditions: Pectobacterium atrosepticum, 15λ, read-out: Inhibition Zone Diameter
[19] = tested on: Pseudomonas aeruginosa 979; experiment: Inhibition zone, agar plate; format: cell-based; conditions: 15λ, read-out: Inhibition Zone Diameter

C[C@H](CNC(=O)[C@H]1N=C(c2cccc(O)c2O)O[C@@H]1C)C(=O)N[C@@H]1CCCN(O)C1=O [L-654,040, 2-(2,3-dihydroxyphenyl)-4,5-dihydro-N-[3-[(1-hydroxy-2-oxo-3(R)-piperidinyl)-amino]-2(R)-methyl-3-oxopropyl]-5R-methyl-4S-oxazolecarboxamide]
zone of inhibition at 500 µg/mL (Escherichia coli 1418; 0.5 mg/ml in distilled H2O): 0 mm | zone of inhibition at 2000 µg/mL (Escherichia coli 1418; 2 mg/ml in distilled H2O): 13 mm | zone of inhibition at 500 µg/mL ([1]; 0.5 mg/ml in distilled H2O): 12 mm | zone of inhibition at 2000 µg/mL ([1]; 2 mg/ml in distilled H2O): 14 mm | MIC (C. perfringens 2237): 128 µg/mL (≈ 295 µM) | MIC (Ent. cloacae P99- 2647 [2]): > 256 µg/mL | MIC [3]: > 128 µg/mL | zone of inhibition at 500 µg/mL ([4]; 0.5 mg/ml in distilled H2O): 0 mm | zone of inhibition at 2000 µg/mL ([4]; 2 mg/ml in distilled H2O): 18 mm | MIC (C. perfringens 3510): 128 µg/mL (≈ 295 µM) | MIC (K. pneumoniae 4005): > 128 µg/mL | MIC [5]: > 128 µg/mL | MIC [6]: > 128 µg/mL | zone of inhibition at 2000 µg/mL ([7]; 2 mg/ml in distilled H2O, 15λ): 33 mm | zone of inhibition at 500 µg/mL [7]: 28 mm | MIC (B. asaccharolyticus 4271): > 128 µg/mL | MIC (B. ovatus Pen^r 3248): > 128 µg/mL | protection against infection [8]: did not protect | statistical significance of prolonged survival ([8]; two Pasteurella tests): statistically significant at one level in two Pasteurella tests | survival time ([8]; 160 mg/kg x 2): prolongation of survival time was observed; also recorded: did prolong the survival time; also recorded: increases survival time | MIC [9]: 128 µg/mL (≈ 295 µM) | zone of inhibition at 500 µg/mL [10]: 16 mm | zone of inhibition at 2000 µg/mL [10]: 28 mm | MIC [11]: > 128 µg/mL | solubility (Solubility in water; boiling water): ~10000 µg/mL (≈ 23000 µM) | solubility in water (Solubility in water; water, for dosing solutions): limited solubility | MIC [12]: > 128 µg/mL | MIC [13]: 128 µg/mL (≈ 295 µM) | zone of inhibition at 500 µg/mL ([14]; 0.5 mg/ml in distilled H2O): 0 mm | zone of inhibition at 2000 µg/mL ([14]; 2 mg/ml in distilled H2O): 0 mm | MIC (Ent. cloacae P99+ 2646): > 128 µg/mL | sensitivity of strain (Staph. aureus 2865; Staphylococcus aureus 2865): sensitive | MIC (Staph. aureus 2865; Staphylococcus aureus, 2865, 20 h): 32 µg/mL (≈ 73.7 µM) | MIC (E. coli TEM 2+ 4351): > 128 µg/mL | relative activity of parent and acetyl derivative (E. coli DC2 4353; E. coli permeability mutant): equal activity | sensitivity of strain (E. coli DC2 4353; E. coli permeability mutant): sensitive | MIC (E. coli DC2 4353; Escherichia coli, DC24353, 20 h): 32 µg/mL (≈ 73.7 µM) | MIC (Ent. cloacae P99- 2647 [15]): > 128 µg/mL | MIC (K. pneumoniae K1+ 4354): > 128 µg/mL | zone of inhibition at 500 µg/mL ([16]; 0.5 mg/ml in distilled H2O): 18 mm | zone of inhibition at 2000 µg/mL ([16]; 2 mg/ml in distilled H2O): 31 mm | MIC (E. coli 2891): > 256 µg/mL | MIC (Ser. marcescens 2840): > 256 µg/mL | MIC [17]: 128 µg/mL (≈ 295 µM) | zone of inhibition at 500 µg/mL (Candida albicans 992; 0.5 mg/ml in distilled H2O): 16 mm | zone of inhibition at 2000 µg/mL (Candida albicans 992; 2 mg/ml in distilled H2O): 24 mm | zone of inhibition at 500 µg/mL (Bacillus sp. 633; 0.5 mg/ml in distilled H2O): 23 mm | zone of inhibition at 2000 µg/mL (Bacillus sp. 633; 2 mg/ml in distilled H2O): 28 mm | MIC (Sal. typhimurium 3860): > 128 µg/mL | zone of inhibition at 500 µg/mL ([18]; 0.5 mg/ml in distilled H2O): 0 mm | zone of inhibition at 2000 µg/mL ([18]; 2 mg/ml in distilled H2O): 0 mm | zone of inhibition at 500 µg/mL ([19]; 0.5 mg/ml in distilled H2O): 0 mm | zone of inhibition at 2000 µg/mL ([19]; 2 mg/ml in distilled H2O): 0 mm
